Patent publication US12173089B2, “Inhibition of pulmonary fibrosis with nutlin-3A and peptides” (BOARD OF REGENTS, THE UNIVERSITY OF TEXAS SYSTEM, priority 2013, dated 2024)

Columns and labels:
[1] = tested on: lung epithelial cells (LECs); settings: in vitro and in vivo; cited from earlier work
FL(IPF)-fibroblasts = assay: miR-34a (real-time PCR) and p53 (immunoblot) in FL-fibroblasts treated with CSP; assay type: cell-based, human; settings: controls PBS, CP
Description: (§1) FIGS. 6A-6D. CSP (CSP4) augments p53 expression via induction of miR-34a in FL(IPF)-fibroblasts. (FIG. 6A) NL- and FL-fibroblasts (n=3) were treated with PBS, CSP-4 (CSP) or control peptide (CP). RNA was analyzed for miR-34a by real-time PCR. (FIG. 6B) FL-fibroblasts were treated with PBS or CSP or CP with or without miR-34a antisense (miR-34a-AS) or pre-miR-34a or control miRNA (Ctr-miR). Conditioned media (CM) were immunoblotted for PAI-1 and lysates (CL) for p53 and β-actin. (FIG. 6C) FL-fibroblasts were treated with PBS or CSP or CP in the presence or absence of miR-34a-AS, pre-miR-34a or Ctr-miR. RNA was analyzed for changes in miR-34a by real-time PCR. […] Changes in p53, uPA, PAI-1 and col-I were later assessed to identify the minimum amino acids required for the CSP effects.
(§2) NL- and FL-fibroblasts were treated with PBS, CSP or CP and RNA analyzed for miR-34a by real-time PCR. Also, FL-fibroblasts were cultured in the presence of PBS or CSP or CP with or without miR-34a antisense (miR-34a-AS) or pre-miR-34a (o control miRNA. Conditioned medium (CM) from these cultures was immunoblotted for PAI-1 and cell lysates (CL) were immunoblotted for p53. In one experiment, FL-fibroblasts were treated with PBS or CSP or CP in the presence or absence of miR-34a-AS, pre-miR-34a or control miR. RNA was analyzed for changes in miR-34a by real-time PCR. Results appear in FIGS. 6A-6C.

ATII cell = settings: BLM- or cigarette smoke-induced; cited from earlier work
NL-fibroblasts = assay: miR-34a and p53 in NL-fibroblasts treated with CSP; assay type: cell-based, human
Description: as §1, §2

BLM-treated mice = assay: Established lung fibrosis in BLM-treated mice (CT scanning, lung function, trichrome staining, hydroxyproline, desmosine); assay type: in vivo; settings: IP or IV administration beginning 14 d after BLM, WT mice; results reported herein and elsewhere
Description: FIGS. 10A-10D. Nutlin-3a (NTL) inhibits lung fibrosis in BLM-treated mice. Mice were exposed to BLM for 14 d to induce lung fibrosis. Saline treated mice were used as fibrosis controls. After 14 d, mice exposed to BLM were injected IV with either vehicle or nutlin-3 a (10 mg/kg body weight) (Zhang F et al. Drug Metab Dispos 39: 15-21, 2011) to determine whether nutlin-3 a inhibited established lung fibrosis. On day 21 after BLM injury, mice underwent CT scanning to assess the extent of fibrosis (FIG. 10A). One representative example is shown (n=9). (FIG. 10B) Lung compliance and resistance were measured in the same mice using the Flexivent system to assess improvement in lung function after nutlin-3 a treatment (n=9). (FIG. 10C) Lung sections were subjected to trichrome staining to assess lung architecture and collagen deposition as an indication of lung fibrosis. (FIG. 10D) Whole lung homogenates were analyzed for total collagen (hydroxyproline) and desmosine content as an independent assessment of changes in ECM.
FIGS. 11A-11D. CSP-4 inhibits established lung fibrosis and improves lung function. Mice were exposed to BLM to induce pulmonary fibrosis. After 14 d, the mice were injected IV with either vehicle or 1.5 mg/kg body weight of CSP-4 or control peptide (“CP”) of scrambled sequence. On d 21 after BLM injury, mice underwent CT scanning examine CSP-4 inhibition of established lung fibrosis (FIG. 11A). One representative example is shown (n=9). (FIG. 11B): Lung volumes were measured in the same mice (n=9) using quantitative CT renditions. (FIG. 11C): Lung sections were subjected to trichrome and H&E staining (not shown) to assess collagen deposition as an indicator of lung fibrosis. (FIG. 11D) Analysis of whole lung homogenates for total hydroxyproline content.
Mice exposed to BLM (or saline in controls) for 14 d to induce lung fibrosis were injected IV with nutlin-3a (10 mg/kg body weight) (Zhang et al, supra) or a vehicle control to determine and the effect on established lung fibrosis was examined. Fibrosis was evaluated by CT scanning and lung function (compliance and resistance) were measured using the Flexivent system. Lung sections were subjected to trichrome staining and H & E staining (the latter not shown) to assess lung architecture and collagen deposition as an indication of fibrosis. Finally, whole lung homogenates were analyzed for total collagen (hydroxyproline) and desmosine content (Bhandary Y P et al, Am J Physiol: Lung Cell Mol Physiol 302:L463-73, 2012; Bhandary Y P et al, Am J Pathol, 183: 131-43 2013) as an independent assessment of the ECM. […] Oral administration of Nutlin-3a 14 days after BLM injury likewise inhibited pulmonary fibrosis in mice.
Mice were exposed to BLM to induce pulmonary fibrosis. After 14 d, the mice were injected IV with either vehicle or 1.5 mg/kg body weight of CSP-4 (SEQ ID NO: 1) or control peptide (scrambled sequence of same amino acids; CP, SEQ ID NO:5) at 1.5 mg/kg body weight or vehicle was injected IV into mice exposed to BLM 14 days earlier. One week later, mice were tested by CT scanning to evaluate lung fibrosis. Lung volume was measured in the same mice using quantitative CT renditions.

[2] = after BLM; cited from earlier work

| Sequence | BLM-induced apoptosis of LECs [1] | miR-34a expression (FL(IPF)-fibroblasts) | p53 expression (FL(IPF)-fibroblasts) | ATII cell apoptosis (ATII cell) | ATII cell p53 expression (ATII cell) | p53 expression (NL-fibroblasts) | established lung fibrosis (BLM-treated mice) | subsequent pulmonary fibrosis [2] |
| --- | --- | --- | --- | --- | --- | --- | --- | --- |
| DGIWKASFTTFTVTKYWFYR (Synthetic peptide - Scaffolding domain of human caveolin-1) [CSP, 20 residue peptide which is the scaffolding domain of caveolin-1] | protected | significantly increased | significantly increased | inhibited | inhibited | not in NL-fibroblasts | mitigates | prevented |
| NYHYLESSMTALYTLGH [PP 2, 17 residue peptide of the inventors' earlier application] | protected |  |  |  |  |  |  | prevented |
